Results: PubChem BioAssay (NCI)
“And” between values parts separate entries of the source, which are not always exact repeats. Equal entries are not always repeated.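 Each compound was tested at five concentrations against cells in 96-well plates for 48 hours. GI50 is the concentration that inhibits growth by half. Definition used: TGI = concentration required for complete inhibition of growth.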

Key:
Test in all cases: growth of human tumour cells (NCI), 48 h
[1] = test system: KM12 colon
[2] = test system: IGROV1 ovarian
[3] = test system: NCI-H522 lung
[4] = test system: SR leukemia
[5] = test system: CAKI-1 renal
[6] = test system: SN12C renal
[7] = test system: MDA-MB-231 breast
[8] = test system: U251 CNS
[9] = test system: RXF 393 renal
[10] = test system: NCI/ADR-RES ovarian

SMILES	GI50 [1] [µM]	TGI [1]	GI50 [2] [µM]	TGI [2]	GI50 [3] [µM]	TGI [3]	GI50 [4] [µM]	TGI [4] [µM]	GI50 [5] [µM]	TGI [5]	GI50 [6] [µM]	TGI [6]	GI50 [7] [µM]	TGI [7] [µM]	GI50 [8] [µM]	TGI [8]	GI50 [9] [µM]	TGI [9]	GI50 [10] [µM]	TGI [10] [µM]
N=C(N)c1ccc2nc(-c3cc(CC(=O)N[C@@H](CC(=O)O)C(=O)O)cc(-c4cc(S(N)(=O)=O)ccc4O)c3O)[nH]c2c1	> 100	> 100 µM	> 100	> 100 µM	> 100	> 100 µM	> 100	> 100	> 100	> 100 µM	> 100	> 100 µM	> 100	> 100	> 100	> 100 µM	> 100	> 100 µM	> 100	> 100
C=C1C(=O)OC2CC(C)C3(O)CCC(=O)C3(C)CC12 (configuration not stated)		42.6 µM		82.6 µM		30.3 µM		57		44.4 µM		48.8 µM		> 100		> 100 µM		79.7 µM		> 100
CC(=O)Oc1ccccc1C(=O)Nc1ncc([N+](=O)[O-])s1	3		2.85	20.8 µM and > 100 µM	1.63	6.2 µM and 21.7 µM	2.32	7.99	2.64	> 100 µM	1.87	21.2 µM and 90.9 µM	1.95		1.38	20.7 µM and > 100 µM	2.06	13.1 µM and 29.7 µM	2.29	> 85.2
Cc1cc(C)c(NC(=O)c2sc3nc4c(cc3c2N)CN(Cc2ccccc2)CC4)c(C)c1	3.26	43.1 µM	6.54	> 100 µM	1.6	6.82 µM	1.83	10.7	2.81	> 100 µM	5.6	> 100 µM	5.75	58.9	4.35	24.2 µM	2.45	18.5 µM	1.64	6.24
N#Cc1c(N/N=C/c2ccc(Cl)cc2Cl)nc(N)nc1N1CCCC1	> 100	> 100 µM	13.8	39.5 µM	28.9	> 100 µM	10.7	42.9	21.7	63.2 µM	51.9	> 100 µM	24.8	> 100	9.02	23.4 µM	21.5	66.2 µM	19.4	82.4
COc1cc(C(=O)N2CCN(c3ncccn3)CC2)c(N)cc1OCc1ccccc1	> 100	> 100 µM	> 100	> 100 µM	> 100	> 100 µM	> 100	> 100	11.9	> 100 µM	63.9	> 100 µM	> 100	> 100	> 100	> 100 µM	> 100	> 100 µM	> 100	> 100
CC(C)(S)C(N)C(=O)O (configuration not stated)	1470	4710 µM and > 100 µM		> 100 µM	4600	> 5000 µM	1840	> 5000	983	2570 µM and > 100 µM	> 5000	> 5000 µM	2660	> 5000	1780	> 5000 µM	> 5000	> 5000 µM	3650	> 5000
